Results from ChEMBL document CHEMBL1136532, “Novel water soluble 2,6-dimethoxyphenyl ester derivatives with intravenous anaesthetic activity” (Bioorg Med Chem Lett, 2003).
pIC50: −log10 of the molar value. Each block holds one molecule with its values, some of them ahead of it.

What was measured:
Mus musculus [1] = experiment: Anesthetic activity determined as hypnotic dose by intravenous administration in male MF-1 mice; type: functional
Mus musculus [2] = experiment: Anesthetic activity as hypnotic dose by intravenous administration in male MF-1 mice; type: functional
Mus musculus [3] = experiment: Anesthetic activity as hypnotic dose by intravenous administration in male MF-1 mice; Convulsant; type: functional, organism-based
[4] = biological target: GABA-A receptor; anion channel; experiment: Inhibition of [35S]TBPS binding to GABA-A receptor rat whole brain membranes; type: cell membranes
Rattus norvegicus [5] = experiment: Dose for 60% Mean burst suppression ratio (BSR) after the start of a 10 s iv bolus injection of compound; type: functional
Rattus norvegicus [6] = organism: Rattus norvegicus; experiment: Parameter value extracted from closed loop infusions to maintain 60% Mean burst suppression ratio (BSR) for 1 hr periods; type: functional
Rattus norvegicus [7] = experiment: Time for Mean burst suppression ratio (BSR) after the start of a 10 s iv bolus injection of compound; type: functional
Rattus norvegicus [8] = experiment: Time to 1st 0.25 s BS epoch (s) of Mean burst suppression ratio (BSR) after the start of a 10 s iv bolus injection of compound; type: functional
Rattus norvegicus [9] = experiment: Time to 30% Mean burst suppression ratio (BSR) after the start of a 10 s iv bolus injection of compound; type: functional
Rattus norvegicus [10] = organism: Rattus norvegicus; experiment: (§1) Parameter value extracted from closed loop infusions to maintain 60% Mean burst suppression ratio (BSR) for 1 h periods; type: functional
Rattus norvegicus [11] = experiment: Time to righting for Mean burst suppression ratio (BSR) after the start of a 10 s iv bolus injection of compound; type: functional
Rattus norvegicus [12] = organism: Rattus norvegicus; experiment: as §1; type: functional, organism-based

SMILES: CCOCCC(C(=O)Oc1c(OC)cccc1OC)N(CCOCC)CCOCC (configuration not stated)
HD50 (Mus musculus [1]): 47 µM/kg

SMILES: COCCCN(CCCOC)C(COC)C(=O)Oc1c(OC)cccc1OC (configuration not stated)
HD50 (Mus musculus [1]): 46 µM/kg

SMILES: CCOCCN(CCOCC)C(COC)C(=O)Oc1c(OC)cccc1OC (configuration not stated)
HD50 (Mus musculus [1]): 25 µM/kg

SMILES: COc1cccc(OC)c1OC(=O)C(CN1CCCOCC1)N1CCCOCC1 (configuration not stated)
HD50 (Mus musculus [2]): <25 µM/kg

SMILES: CCOCCC(C(=O)Oc1c(OC)cccc1OC)N1CCCCCC1 (configuration not stated)
HD50 (Mus musculus [1]): 25 µM/kg

SMILES: C=CCN1CCN(Cc2ccccc2)C(C(=O)Oc2c(OC)cccc2OC)C1 (configuration not stated)
HD50 (Mus musculus [2]): 31 µM/kg

SMILES: CCC(=O)N1CCN(Cc2ccccc2)C(C(=O)Oc2c(OC)cccc2OC)C1 (configuration not stated)
HD50 (Mus musculus [2]): 34 µM/kg

SMILES: COc1cccc(OC)c1OC(=O)C(CN1CCCCC1)N1CCOCC1 (configuration not stated)
HD50 (Mus musculus [2]): 15 µM/kg

SMILES: COCC(C(=O)Oc1c(OC)cccc1OC)N1CCOCC1 (configuration not stated)
HD50 (Mus musculus [1]): 54 µM/kg

SMILES: COCC(C(=O)Oc1c(OC)cccc1OC)N1CCCCC1 (configuration not stated)
HD50 (Mus musculus [1]): 146 µM/kg

SMILES: COc1cccc(OC)c1OC(=O)C(CN1CCOCC1)N1CCc2ccccc2C1 (configuration not stated)
HD50 (Mus musculus [2]): 21 µM/kg

SMILES: COc1cccc(OC)c1OC(=O)C(CN1CCOCC1)N1CCOCC1 (configuration not stated)
HD50 (Mus musculus [2]): 38 µM/kg

SMILES: COCCC(C(=O)Oc1c(OC)cccc1OC)N1CCCCCC1 (configuration not stated)
HD50 (Mus musculus [1]): 17 µM/kg

SMILES: CCOCCC(C(=O)Oc1c(OC)cccc1OC)N(CCOC)CCOC (configuration not stated)
HD50 (Mus musculus [1]): 27 µM/kg

SMILES: COc1cccc(OC)c1OC(=O)C(CN1CCSCC1)N1CCOCC1 (configuration not stated)
HD50 (Mus musculus [2]): 17 µM/kg

SMILES: COCC(C(=O)Oc1c(OC)cccc1OC)N1CCSCC1 (configuration not stated)
HD50 (Mus musculus [1]): 21 µM/kg

SMILES: COc1cccc(OC)c1OC(=O)C1CN(C)CCN1Cc1ccccc1 (configuration not stated)
HD50 (Mus musculus [2]): 122 µM/kg

SMILES: CCN1CCN(Cc2ccccc2)C(C(=O)Oc2c(OC)cccc2OC)C1 (configuration not stated)
HD50 (Mus musculus [2]): 24 µM/kg

SMILES: COCCC(C(=O)Oc1c(OC)cccc1OC)N1CCOCC1 (configuration not stated)
HD50 (Mus musculus [1]): 38 µM/kg

SMILES: CCOCCN(CCOCC)C(CCOC)C(=O)Oc1c(OC)cccc1OC (configuration not stated)
HD50 (Mus musculus [1]): 28 µM/kg

SMILES: COCCC(C(=O)Oc1c(OC)cccc1OC)N1C=CCCC1 (configuration not stated)
HD50 (Mus musculus [1]): 22 µM/kg

SMILES: COCCC(C(=O)Oc1c(OC)cccc1OC)N1CCC(OC)CC1 (configuration not stated)
HD50 (Mus musculus [1]): 21 µM/kg

SMILES: COCCC(C(=O)Oc1c(OC)cccc1OC)N(CCOC)CCOC (configuration not stated)
HD50 (Mus musculus [1]): 27 µM/kg

SMILES: CCOCC(C(=O)Oc1c(OC)cccc1OC)N1CCCOCC1 (configuration not stated)
HD50 (Mus musculus [1]): 20 µM/kg

SMILES: CCOCCC(C(=O)Oc1c(OC)cccc1OC)N1CCOCC1 (configuration not stated)
HD50 (Mus musculus [1]): 36 µM/kg

SMILES: COc1cccc(OC)c1OC(=O)C(CN1CCSCC1)N1CCSCC1 (configuration not stated)
HD50 (Mus musculus [2]): 15 µM/kg

SMILES: COCCN(CCOC)C(CN1CCOCC1)C(=O)Oc1c(OC)cccc1OC (configuration not stated)
HD50 (Mus musculus [2]): 75 µM/kg

SMILES: COc1cccc(OC)c1OC(=O)C(CN1CCOCC1)N1CCSCC1 (configuration not stated)
HD50 (Mus musculus [2]): 19 µM/kg

SMILES: COCCC(C(=O)Oc1c(OC)cccc1OC)N1CCCCC1 (configuration not stated)
HD50 (Mus musculus [1]): 22 µM/kg

SMILES: CCOCCN(CCOCC)CC(C(=O)Oc1c(OC)cccc1OC)N(CCOCC)CCOCC (configuration not stated)
HD50 (Mus musculus [3]): Convulsant

SMILES: CCOCCN(CCOCC)CC(C(=O)Oc1c(OC)cccc1OC)N1CCOCC1 (configuration not stated)
HD50 (Mus musculus [3]): Convulsant

SMILES: COCCN(CCOC)CC(C(=O)Oc1c(OC)cccc1OC)N(CCOC)CCOC (configuration not stated)
HD50 (Mus musculus [3]): Convulsant

SMILES: COc1cccc(OC)c1OC(=O)C1CNCCN1Cc1ccccc1 (configuration not stated)
HD50 (Mus musculus [3]): Convulsant

pIC50 [4]: 4.46
SMILES: CCOCCC(C(=O)Oc1c(OC)cccc1OC)N1CCCOCC1 (racemic)

pIC50 [4]: 4.16
SMILES: COCCC(C(=O)Oc1c(OC)cccc1OC)N1CCCOCC1 (racemic)
HD50 (Mus musculus [1]): 20 µM/kg

pIC50 [4]: < 4.00
SMILES: CCOCCC(C(=O)Oc1c(OC)cccc1OC)N1CCCOCC1 (single isomer, unassigned)
HD50 (Mus musculus [1]): 48 µM/kg

pIC50 [4]: 4.45
SMILES: COCC(C(=O)Oc1c(OC)cccc1OC)N1CCCOCC1 (single isomer, unassigned; form 1) [listing 1 of 2 here]
HD50 (Mus musculus [1]): 16 µM/kg
Dose (Rattus norvegicus [5]): 11.4 µM/kg
Infusion rate (Rattus norvegicus [6]): 5 µM/min/kg
Time to 30% BSR (Rattus norvegicus [6]): 2.4 min
Time (Rattus norvegicus [7]): 32 s
Time (Rattus norvegicus [8]): 12.9 s
Time (Rattus norvegicus [9]): 1.3 min
Time to righting (Rattus norvegicus [10]): 6.8 min
Time (Rattus norvegicus [11]): 3.3 min

pIC50 [4]: < 4.00
SMILES: COCCC(C(=O)Oc1c(OC)cccc1OC)N1CCCOCC1 (single isomer, unassigned; form 1)
HD50 (Mus musculus [1]): 30 µM/kg

SMILES: COCC(C(=O)Oc1c(OC)cccc1OC)N1CCCOCC1 (single isomer, unassigned; form 1) [listing 2 of 2 here]
Stability of BSR (Rattus norvegicus [12]): 2.5%

pIC50 [4]: 4.01
SMILES: COCC(C(=O)Oc1c(OC)cccc1OC)N1CCCOCC1 (single isomer, unassigned; form 2)
HD50 (Mus musculus [1]): 40 µM/kg

pIC50 [4]: 4.49
SMILES: COCCC(C(=O)Oc1c(OC)cccc1OC)N1CCCOCC1 (single isomer, unassigned; form 2)

SMILES: CCOCCC(C(=O)Oc1c(OC)cccc1OC)N1CCCOCC1 (stereo in doubt)
HD50 (Mus musculus [1]): 15 µM/kg

pIC50 [4]: 4.46
SMILES: COCC(C(=O)Oc1c(OC)cccc1OC)N1CCCOCC1 (stereo in doubt; 26)
HD50 (Mus musculus [1]): 30 µM/kg

SMILES: COCCC(C(=O)Oc1c(OC)cccc1OC)N1CCCOCC1 (stereo in doubt; 31)
HD50 (Mus musculus [1]): 15 µM/kg

SMILES: CCOCCC(C(=O)Oc1c(OC)cccc1OC)N1CCCOCC1 (stereo in doubt; 39)
HD50 (Mus musculus [1]): 23 µM/kg

SMILES: CC[C@H](C(=O)Oc1c(OC)cc(C)cc1OC)N(CCOC)CCOC [ORG-24447]
pIC50 [4]: 4.53
HD50 (Mus musculus [2]): 22 µM/kg

SMILES: CC(C)c1cccc(C(C)C)c1O [PROPOFOL]
HD50 (Mus musculus [2]): 68 µM/kg
Dose (Rattus norvegicus [5]): 41 µM/kg
Time (Rattus norvegicus [7]): 30 s
Time (Rattus norvegicus [8]): 13.1 s
Time (Rattus norvegicus [9]): 1.5 min
Time (Rattus norvegicus [11]): 5.5 min
